# Assays:
# [1] = system: HBV cccDNA; assay: Southern blot detection of HBV cccDNA in infected HepG2-hNTCP 2B1; assay type: cell-based, hepatitis B virus; conditions: 5 μM, day 6 to day 12 after infection, compared with interferon IFNα 500 IU control group and blank group
# Description: Southern blot experiment was carried out on a 10 cm^2 culture plate. About 5×10^6 HepG2-hNTCP 2B1 cells were plated in each 10 cm^2 culture plate, and medium B was added. After the cells adhered, medium A was used for replacement to perform the induction with Doxycycline during the whole experiment. HBV infection was performed 4 days after the induction with Doxycycline, and the amount of HBV for infection was 1000 MOI. Before infection, HBV was diluted in medium C to obtain HBV solution, and the infection volume was 5 mL. During infection, the cell supernatant was first removed by suction, the HBV solution was added to the cells, the cells were incubated for 24 hours, then the supernatant was collected as the sample of Day 0. Then the cells were washed three times with PBS, and fresh medium A was used for replacement. After that, the supernatant was collected every two days for detection, fresh medium A was used for replacement. […]
# [2] = system: HBV; assay: Inhibitory effect on HBV infection in human primary hepatocytes (drug before infection); assay type: cell-based, hepatitis B virus; conditions: 1, 5, 25 μM, treatment before infection, to day 8, p<0.05
# Description: Primary hepatocytes were isolated from humanized mice transplanted with primary human hepatocytes through perfusion technique (refer to: Foquet, Lander, et al. “Successful engraftment of human hepatocytes in uPA-SCID and FRG® KO mice.” Hepatocyte Transplantation. Humana Press, New York, NY, 2017. 117-130, Wan-Chun Li, et al. “Isolation and Culture of Adult Mouse Hepatocytes.” Mouse Cell Culture. Humana Press, 2010. 185-196.), directly cultured in 24-well plates (Collagen I pre-coated 24-well plates, purchased from Thermo Scientific) after counting (about 5×10^5 primary hepatocytes per well), and medium H was added to maintain hepatocyte morphology (refer to: Xiang, Chengang, et al. “Long-term functional maintenance of primary human hepatocytes in vitro.” Science 364.6438 (2019): 399-402.). After culturing for 24 hours, drug-containing medium H was used to replace the drug-free medium H to perform drug treatment for 24 hours, and then infection was carried out with HBV, and the amount of HBV for infection in each well was 2000 MOI. Before infection, HBV was first diluted in medium I to obtain HBV solution, and the infection volume was 250 μL/well. During infection, the cell supernatant was first removed by suction, the HBV solution was added to the cells, the cells were incubated for 24 hours, then the supernatant was collected as the sample of Day 0. Then the cells were washed 3 times with PBS that was warmed in bath at 37° C., and fresh drug-containing medium H (500 μL per well) was used for replacement, then the supernatant was collected every two days for detection, fresh drug-containing medium H was used for replacement, until the 8th day, all the supernatants and cells were collected for relevant detection. The detection items included HBsAg, HBeAg, HBV DNA, HBV cccDNA, and for the detection method, please refer to Example 1.
structure (smiles),measurement,setting,value
CC1(C)CCC(C)(C)c2cc(Cn3cccn3)c(/C=C/c3ccc(C(=O)O)cc3)cc21 [Palovarotene],level of HBV cccDNA (Southern blot),[1],significantly lower
same,level of HBeAg in the cell supernatant,[2],significantly inhibit
same,level of HBsAg in the cell supernatant,[2],significantly inhibit
same,level of intracellular HBV DNA,[2],significantly inhibit
same,level of intracellular cccDNA,[2],significantly inhibit

# Source: patent publication US12569468B2, “Use of palovarotene in treatment against HBV virus” (YANG SHENG TANG COMPANY, LTD., priority 2020, dated 2026)
